Source: paper PMC6296175, “Oxidative stress‐induced structural changes in the microtubule‐associated flavoenzyme Irc15p from Saccharomyces cerevisiae” (Protein Science : A Publication of the Protein Society, 2018)

Tests used:
[1] = target: T1, Irc15p (Saccharomyces cerevisiae, UniProt Q02733); experiment: HPLC of flavin released from denatured protein; UV-Vis absorption; type: binding; settings: co-purified; lysis buffer supplemented with 10 μM FAD; one FAD per protomer
T1 construct: gene IRC15; E. coli Rosetta (DE3); ~55 kDa subunit, homodimer ~113-115 kDa, one FAD per protomer
T1 sequence (Q02733 1-499): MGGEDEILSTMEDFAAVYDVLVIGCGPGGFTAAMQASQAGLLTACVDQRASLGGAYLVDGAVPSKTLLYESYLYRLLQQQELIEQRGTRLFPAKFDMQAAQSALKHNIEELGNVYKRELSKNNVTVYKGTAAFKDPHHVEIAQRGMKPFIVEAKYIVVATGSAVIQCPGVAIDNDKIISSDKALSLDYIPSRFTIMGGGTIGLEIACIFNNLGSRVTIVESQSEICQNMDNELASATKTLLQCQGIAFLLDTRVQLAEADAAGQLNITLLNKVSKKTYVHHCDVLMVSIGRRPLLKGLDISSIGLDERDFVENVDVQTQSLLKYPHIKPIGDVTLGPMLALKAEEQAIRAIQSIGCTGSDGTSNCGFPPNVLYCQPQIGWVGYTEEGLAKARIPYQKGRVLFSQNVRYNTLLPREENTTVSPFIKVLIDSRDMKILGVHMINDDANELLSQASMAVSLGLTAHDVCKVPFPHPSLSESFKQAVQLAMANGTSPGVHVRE

[2] = target: T1, Irc15p; experiment: stopped-flow reductive half-reaction, flavin absorption at […] nm, hyperbolic fit of rate; type: biochemical; settings: anoxic; 50 mM HEPES, 50 mM NaCl, 1 mM DTT, pH 7.0; 4 °C; pre-steady-state; read-out: dissociation constant
[3] = target: T1, Irc15p; experiment: thermal shift assay (SYPRO Orange); type: binding; settings: 50 mM HEPES, 50 mM NaCl, 1 mM DTT, pH 7.0, absolute Tm, compare ligand-free control in the 4th table, row 3
Text: thermal shift assay (SYPRO Orange) on Irc15p

[4] = target: the molecule itself; experiment: SEC; analytical size exclusion chromatography, Superdex 200 10/300 GL, buffer A (50 mM HEPES, 150 mM NaCl, 1 mM DTT, pH 7.0), calibrated with molecular mass standards; elution monitored at 280 and 450 nm

## Cc1cc2nc3c(=O)[nH]c(=O)nc-3n(C[C@H](O)[C@H](O)[C@H](O)COP(=O)(O)OP(=O)(O)OC[C@H]3O[C@@H](n4cnc5c(N)ncnc54)[C@H](O)[C@@H]3O)c2cc1C [FAD]
[1]
  HPLC of flavin released from denatured protein; UV-Vis absorption: closely corresponding to the retention time of authentic FAD

## NC(=O)C1=CN([C@@H]2O[C@H](COP(=O)(O)OP(=O)(O)OC[C@H]3O[C@@H](n4cnc5c(N)ncnc54)[C@H](O)[C@@H]3O)[C@@H](O)[C@H]2O)C=CC1 [NADH]
[2]
  Kd: 100 ± 5 µM
[3]; 50 mM NADH, ligand reduces the FAD
  T m [°C]: 47 °C

## NC(=O)C1=CN([C@@H]2O[C@H](COP(=O)(O)OP(=O)(O)OC[C@H]3O[C@@H](n4cnc5c(N)ncnc54)[C@H](OP(=O)(O)O)[C@@H]3O)[C@@H](O)[C@H]2O)C=CC1 [NADPH]
[3]; 50 mM NADPH, ligand reduces the FAD
  T m [°C]: 45 °C

## NC(=O)c1ccc[n+]([C@@H]2O[C@H](COP(=O)(O)OP(=O)(O)OC[C@H]3O[C@@H](n4cnc5c(N)ncnc54)[C@H](O)[C@@H]3O)[C@@H](O)[C@H]2O)c1 [NAD^+]
[3]; 50 mM NAD+
  T m [°C]: 64 °C

B1: Irc15p (increased recombination centers 15) (enzyme, S. cerevisiae, UniProt Q02733 1-499, looked up)
chain: T1 sequence (Q02733 1-499)
notes: The forward primer carries the start ATG; Homodimer with one FAD per protomer; this was read from the printed primers; source: E. coli Rosetta (DE3), pET21d(+)IRC15, purified (Ni-NTA HisTrap HP; for SAXS also size exclusion chromatography)
[4]
  stoichiometry N: 2
